Assay results from US20070197525A1, “Novel tetracyclic tetrahydrofuran derivatives” (priority 2004, published 2007).

What was measured:
[1] = target: T1, human dopamine D2L receptor (Homo sapiens, UniProt P14416); assay: In vitro assay for D2 receptor binding; settings: for IC50 / D2 (pIC50): membranes of human D2L-transfected CHO cells, [3H]Spiperone radioligand; for IC50: read-out: D2 (pIC50) (converted); for D2/NET: ratio of D2 pIC50 to NET-inhibition pIC50
T1 construct: expressed in transfected cells; host or cells: CHO cells (frozen membranes)
Protocol: Frozen membranes of human dopamine D2L receptor-transfected CHO cells were thawed, briefly homogenised using an Ultra-Turrax T25 homogeniser and diluted in Tris-HCl assay buffer containing NaCl, CaCl2, MgCl2, KCl (50, 120, 2, 1, and 5 mM respectively, adjusted to pH 7.7 with HCl) to an appropriate protein concentration optimised for specific and non-specific binding. Radioligand [^3H]Spiperone (NEN, specific activity ˜70 Ci/mmol) was diluted in assay buffer at a concentration of 2 nmol/L. Prepared radioligand (50 μl), along with 50 μl of either the 10% DMSO control, Butaclamol (10^−6 mol/l final concentration), or compound of interest, was then incubated (30 min, 37° C.) with 400 μl of the prepared membrane solution. Membrane-bound activity was filtered through a Packard Filtermate harvester onto GF/B Unifilterplates and washed with ice-cold Tris-HCl buffer (50 mM; pH 7.7; 6×0.5 ml). Filters were allowed to dry before adding scintillation fluid and counting in a Topcount scintillation counter. Percentage specific bound and competition binding curves were calculated using S-Plus software (Insightful).

[2] = target: T2, norepinephrine transporter (NET) (Rattus norvegicus, UniProt Q63380); assay: In vitro assay for NET inhibition (radioligand binding, rat brain cortex); settings: rat brain cortex membranes, [3H]Nixosetine radioligand; for IC50: read-out: NET-inhibition (pIC50) (converted)
T2 construct: Cortex from rat brain was collected and homogenised; from tissue; host or cells: rat brain cortex membranes
Protocol: Cortex from rat brain was collected and homogenised using an Ultra-Turrax T25 and a Dual homogeniser in ice-cold homogenising buffer containing Tris, NaCl and KCl (50 mM, 120 mM and 5 mM, respectively, pH 7.4) prior to dilution to an appropriate protein concentration optimised for specific and non-specific binding. […] Membrane-bound activity was detected by filtration through a Packard Filtermate harvester onto GF/B Unifilterplates, washed with ice-cold Tris-HCl buffer, containing NaCl and KCl (50 mM, 120 mM and 4 mM; pH 7.4; 6×0.5 ml). Filters were allowed to dry for 24 h before adding scintillation fluid. Scintillation fluid was allowed to saturate filters for 24 h before counting in a Topcount scintillation counter. Percentage specific bound and competition binding curves were calculated using S-Plus software (Insightful).

[3] = target: T3, human cloned 5-HT2C receptor (Homo sapiens, UniProt P28335); assay: In vitro binding affinity for 5-HT2C receptor (radioligand binding); settings: human cloned 5-HT2C receptor expressed in CHO cells, [3H]mesulergine radioligand; read-out: 5-HT2C (pIC50) (converted)
T3 construct: expressed in transfected cells; host or cells: CHO cells
T3 sequence (P28335 33-458): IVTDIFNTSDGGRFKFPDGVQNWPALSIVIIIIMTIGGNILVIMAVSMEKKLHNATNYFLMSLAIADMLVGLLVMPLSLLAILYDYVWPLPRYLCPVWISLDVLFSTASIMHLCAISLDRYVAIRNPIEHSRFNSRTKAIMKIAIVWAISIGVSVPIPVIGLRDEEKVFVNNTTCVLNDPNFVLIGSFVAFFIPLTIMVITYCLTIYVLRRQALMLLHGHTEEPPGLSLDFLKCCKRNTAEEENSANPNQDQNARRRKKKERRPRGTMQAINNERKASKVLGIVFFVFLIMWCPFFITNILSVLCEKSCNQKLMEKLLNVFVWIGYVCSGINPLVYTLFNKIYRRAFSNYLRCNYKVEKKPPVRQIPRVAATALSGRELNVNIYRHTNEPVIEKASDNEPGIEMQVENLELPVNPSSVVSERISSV
Protocol: (§1) The interaction of the compounds of Formula (I) with 5-HT2A and 5-HT2C receptors was assessed in in vitro radioligand binding experiments. In general, a low concentration of a radioligand with a high binding affinity for the receptor is incubated with a sample of a tissue preparation enriched in a particular receptor (1 to 5 mg tissue) in a buffered medium (0.2 to 5 ml). During the incubation, the radioligands bind to the receptor. When equilibrium of binding is reached, the receptor bound radioactivity is separated from the non-bound radioactivity, and the receptor bound activity is counted. The interaction of the test compounds with the receptors is assessed in competition binding experiments. Various concentrations of the test compound are added to the incubation mixture containing the tissue preparation and the radioligand. Binding of the radioligand will be inhibited by the test compound in proportion to its binding affinity and its concentration. The affinities of the compounds for the 5-HT2 receptors were measured by means of radioligand binding studies conducted with: (a) human cloned 5-HT2A receptor, expressed in L929 cells using [^125I]R91150 as radioligand and (b) human cloned 5-HT2C receptor, expressed in CHO cells using [^3H]mesulergine as radioligand.

[4] = target: T4, human cloned 5-HT2A receptor (Homo sapiens, UniProt P28223); assay: In vitro binding affinity for 5-HT2A receptor (radioligand binding); settings: human cloned 5-HT2A receptor expressed in L929 cells, [125I]R91150 radioligand; read-out: 5-HT2A (pIC50) (converted)
T4 construct: expressed in transfected cells; host or cells: L929 cells
Protocol: as §1

T2 sequence (Q63380 1-617): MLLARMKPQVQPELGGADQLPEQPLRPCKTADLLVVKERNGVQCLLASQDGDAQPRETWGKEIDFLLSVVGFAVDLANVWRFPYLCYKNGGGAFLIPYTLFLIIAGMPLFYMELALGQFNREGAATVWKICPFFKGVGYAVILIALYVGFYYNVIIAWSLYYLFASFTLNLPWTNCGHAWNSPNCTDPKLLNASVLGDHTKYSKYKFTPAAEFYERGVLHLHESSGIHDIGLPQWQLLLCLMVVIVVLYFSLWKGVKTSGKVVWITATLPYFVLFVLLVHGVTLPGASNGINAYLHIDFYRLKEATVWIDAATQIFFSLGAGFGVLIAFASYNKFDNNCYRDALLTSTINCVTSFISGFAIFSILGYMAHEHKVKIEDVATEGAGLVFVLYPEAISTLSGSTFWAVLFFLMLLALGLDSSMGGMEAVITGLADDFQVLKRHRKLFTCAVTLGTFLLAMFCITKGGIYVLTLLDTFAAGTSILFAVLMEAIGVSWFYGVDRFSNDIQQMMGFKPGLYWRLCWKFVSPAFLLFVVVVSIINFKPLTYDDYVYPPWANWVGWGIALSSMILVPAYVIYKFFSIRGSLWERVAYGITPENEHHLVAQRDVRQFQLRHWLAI
T4 sequence (P28223 whole entry): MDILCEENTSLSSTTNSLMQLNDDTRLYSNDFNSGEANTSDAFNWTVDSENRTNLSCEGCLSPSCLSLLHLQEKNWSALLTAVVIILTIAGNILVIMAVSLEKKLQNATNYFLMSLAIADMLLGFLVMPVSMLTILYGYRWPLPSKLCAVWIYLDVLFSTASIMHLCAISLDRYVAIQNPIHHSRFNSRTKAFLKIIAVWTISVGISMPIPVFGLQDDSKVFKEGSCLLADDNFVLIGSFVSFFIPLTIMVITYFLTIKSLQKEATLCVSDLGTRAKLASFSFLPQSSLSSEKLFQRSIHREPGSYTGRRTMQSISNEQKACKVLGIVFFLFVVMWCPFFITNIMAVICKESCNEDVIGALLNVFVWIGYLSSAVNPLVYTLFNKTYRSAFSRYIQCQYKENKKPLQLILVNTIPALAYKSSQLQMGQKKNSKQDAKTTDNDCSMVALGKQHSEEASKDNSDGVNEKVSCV
T1 sequence (P14416 whole entry): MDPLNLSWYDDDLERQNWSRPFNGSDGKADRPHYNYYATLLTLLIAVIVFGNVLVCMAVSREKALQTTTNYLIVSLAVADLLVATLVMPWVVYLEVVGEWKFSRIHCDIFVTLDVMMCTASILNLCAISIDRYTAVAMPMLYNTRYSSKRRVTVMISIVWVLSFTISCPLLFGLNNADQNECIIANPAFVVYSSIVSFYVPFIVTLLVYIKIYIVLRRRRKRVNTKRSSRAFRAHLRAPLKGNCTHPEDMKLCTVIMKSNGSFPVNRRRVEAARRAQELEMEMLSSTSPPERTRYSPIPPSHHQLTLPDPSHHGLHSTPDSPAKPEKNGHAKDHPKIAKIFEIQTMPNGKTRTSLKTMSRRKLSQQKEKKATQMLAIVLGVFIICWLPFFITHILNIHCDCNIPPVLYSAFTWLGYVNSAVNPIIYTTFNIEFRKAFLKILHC

| SMILES | IC50 [1] [nM] | D2/NET [1] | IC50 [2] [nM] | IC50 [3] [nM] | IC50 [4] [nM] | NET-inhibition (pIC50) [2] | D2 (pIC50) [1] |
| --- | --- | --- | --- | --- | --- | --- | --- |
| CNC[C@@H]1C[C@H]2c3ccccc3C(C)c3ccc(F)cc3[C@@H]2O1 (mixture of isomers) [Compound 99] | > 10000 | <0.69 | 63.1 | 200 |  |  |  |
| CNC[C@H]1C[C@H]2c3cc(F)ccc3C(C)c3ccccc3[C@@H]2O1 (mixture of isomers) [Compound 102] | 7940 | 0.68 | 31.6 | 50.1 |  |  |  |
| CCNC[C@H]1C[C@@H]2c3ccccc3[C@@H](O)c3ccc(F)cc3[C@H]2O1 (relative stereo) [Compound 106] | 1260 | 0.67 | 3.98 | 5.01 | 20 |  |  |
| C=C1c2ccccc2C2CC(CN(C)C)OC2c2ccccc21 (single isomer, unassigned) [Compound 24] | > 10000 | <0.65 | 20 | 25.1 | 158 |  |  |
| CNCC1CC2c3ccccc3C(C)c3ccc(F)cc3C2O1 (single isomer, unassigned) [Compound 73] | 63.1 | 0.96 | 39.8 | 2 | 2 |  |  |
| C=C1c2ccc(F)cc2C2CC(CNC)OC2c2ccccc21 (single isomer, unassigned) [Compound 93] |  | 0.73 | 6.31 | 3.98 |  |  |  |
| C=C1c2ccc(F)cc2C2CC(CNC)OC2c2ccccc21 (single isomer, unassigned) [Compound 94] | 5010 | 0.65 |  | 20 |  | 8.2 |  |
| CNCC1CC2c3ccccc3C(C)c3ccc(F)cc3C2O1 (single isomer, unassigned) [Compound 100] | > 10000 | <0.62 | 7.94 | 158 |  |  |  |
| CNCC1CC2c3cc(F)ccc3C(C)(O)c3ccccc3C2O1 (single isomer, unassigned) [Compound 114] |  | <0.83 | 631 | 1000 |  |  | <5 |
| CNCC1CC2c3cc(F)ccc3C(C)(O)c3ccccc3C2O1 (single isomer, unassigned) [Compound 115] | > 10000 | <0.85 | 1260 | 1580 |  |  |  |
| CCNCC1CC2c3ccccc3C(C)(O)c3ccc(F)cc3C2O1 (single isomer, unassigned) [Compound 118] | 2000 | 0.91 | 631 | 100 |  |  |  |
| CCNCC1CC2c3ccccc3C(C)(O)c3ccc(F)cc3C2O1 (single isomer, unassigned) [Compound 119] |  | 0.67 | 31.6 | 20 |  |  |  |
| CNCC1CC2c3ccccc3C(C)(O)c3ccc(F)cc3C2O1 (single isomer, unassigned) [Compound 124] |  | <0.77 | 316 | 6310 |  |  | <5 |
| CNCC1CC2c3ccccc3C(C)(O)c3ccc(F)cc3C2O1 (single isomer, unassigned) [Compound 125] | > 10000 | <0.88 | 2000 | 6310 |  |  |  |
| CNCC1CC2c3ccccc3C(C)(O)c3ccc(F)cc3C2O1 (single isomer, unassigned) [Compound 126] |  | <0.69 | 63.1 | 501 |  |  | <5 |
| CN(C)C[C@H]1C[C@@H]2c3ccccc3C(=O)c3ccc(F)cc3[C@H]2O1 [Compound 12] | > 1000 | <0.83 | 63.1 | 79.4 | 63.1 |  |  |
| COc1ccc2c(c1)[C@H]1O[C@@H](CN(C)C)C[C@@H]1c1ccccc1C2=O [Compound 16] |  | 0.95 | 501 | 50.1 |  |  |  |
| C=C1c2ccccc2[C@H]2C[C@H](CN(C)C)O[C@@H]2c2ccccc21 [Compound 25] | 200 | 0.85 | 12.6 | 3.98 | 12.6 |  |  |
| C=C1c2ccc(F)cc2C2CC(CN(C)C)OC2c2cc(F)ccc21 (stereo not drawn) [Compound 29] | > 1000 | <0.72 | 5.01 | 12.6 |  |  |  |
| CNC[C@H]1C[C@@H]2c3ccccc3[C@H](O)c3ccc(F)cc3[C@H]2O1 [Compound 34] | > 1000 | <0.77 | 20 | 5.01 | 31.6 |  |  |
| COC1c2ccccc2[C@H]2C[C@H](CN(C)C)O[C@@H]2c2cc(F)ccc21 (stereo partly drawn) [Compound 60] | 3980 | 0.79 | 126 | 39.8 |  |  |  |
| CNC[C@H]1C[C@@H]2c3ccccc3[C@@H](OC(C)C)c3ccc(F)cc3[C@H]2O1 [Compound 63] | > 10000 | <0.92 | 3980 | 100 | 316 |  |  |
| CC1c2ccc(F)cc2C2CC(CN(C)C)OC2c2cc(F)ccc21 (stereo not drawn) [Compound 77] | > 1000 | <0.80 | 31.6 | 50.1 |  |  |  |
| C[C@@H]1c2ccccc2[C@H]2C[C@H](CN(C)C)O[C@@H]2c2cc(N(C)C)ccc21 [Compound 78] | 2000 | 0.88 | 398 | 100 |  |  |  |
| C=C1c2ccccc2[C@@H]2C[C@@H](CNC)O[C@H]2c2cc(F)ccc21 [Compound 95] | 6310 | 0.67 | 15.8 | 50.1 |  |  |  |
| CNC[C@H]1C[C@@H]2c3cc(F)ccc3[C@@H](C)c3ccccc3[C@H]2O1 [Compound 101] | 3980 | 0.69 | 15.8 | 20 |  |  |  |
| NC[C@H]1C[C@@H]2c3ccccc3[C@@H](O)c3ccc(F)cc3[C@H]2O1 [Compound 104] | 7940 | 0.60 | 200 | 2.51 | 12.6 |  |  |
| CCNC[C@H]1C[C@@H]2c3ccccc3[C@H](O)c3ccc(F)cc3[C@H]2O1 [Compound 107] | 1580 | 0.86 | 158 | 6.31 | 20 |  |  |
| OC1c2ccccc2C2CC(CNCc3ccccc3)OC2c2cc(F)ccc21 (stereo not drawn) [Compound 109] | > 10000 | <0.92 | 3980 | 12.6 |  |  |  |
| COC1c2ccccc2C2CC(CNCc3ccccc3)OC2c2cc(F)ccc21 (stereo not drawn) [Compound 111] | 3160 | 0.96 | 2000 | 79.4 |  |  |  |
